In ChEMBL document CHEMBL1124074, “Bile acids with a cyclopropyl-containing side chain. 3. Separation, identification, and properties of all four stereoisomers of 3 alpha,7 beta-dihydroxy-22,23-methylene-5 beta-cholan-24-oic acid” (J Med Chem, 1988):

Assays:
[1] = pKa value was evaluated; assay type: physicochemical
[2] = Critical micellar concentration was measured in water by the dye solubilization method; assay type: ADME; details: buffer

Row | Structure (SMILES) | pKa [1] | CMC [2]
1 | C[C@H]([C@@H]1C[C@@H]1C(=O)O)[C@H]1CC[C@H]2[C@@H]3[C@@H](O)CC4C[C@H](O)CC[C@]4(C)[C@H]3CC[C@]12C (some centres undefined) | 5.02 | 14 mM
2 | C[C@H]([C@H]1C[C@H]1C(=O)O)[C@H]1CC[C@H]2[C@@H]3[C@@H](O)CC4C[C@H](O)CC[C@]4(C)[C@H]3CC[C@]12C (some centres undefined) | 5.04 | 10 mM
3 | CC(C1CC[C@H]2[C@@H]3[C@@H](O)CC4C[C@H](O)CCC4(C)[C@H]3CCC12C)[C@@H]1C[C@@H]1C(=O)O (some centres undefined) | 5.04 | 25 mM
4 | CC(C1CC[C@H]2[C@@H]3[C@@H](O)CC4C[C@H](O)CCC4(C)[C@H]3CCC12C)[C@H]1C[C@H]1C(=O)O (some centres undefined) | 5.05 | 20 mM
5 | C[C@H](CCC(=O)O)[C@H]1CC[C@H]2[C@@H]3[C@@H](O)C[C@@H]4C[C@H](O)CC[C@]4(C)[C@H]3CC[C@]12C [URSODIOL] |  | 19 mM
